Laboratory results taken from ChEMBL document CHEMBL1150876, “Purpurediolin and purpurenin, two new cytotoxic adjacent bis-tetrahydrofuran annonaceous acetogenins from the seeds of Annona purpurea” (J Nat Prod, 1998).
Converted amounts (≈) assume the structure as drawn.

Columns and labels:
A549 = assay: Cytotoxicity against human A549 cells after 7 days by MTT assay; type: functional; details: for EC50: Homo sapiens, A549, 168 h, read-out: ED50 (the source's name)
A498 = assay: Cytotoxicity against human A498 cells after 7 days by MTT assay; type: functional; details: for EC50: Homo sapiens, A498, 168 h, read-out: ED50 (the source's name)
HT-29 = assay: Cytotoxicity against human HT-29 cells after 7 days by MTT assay; type: functional; details: for EC50: Homo sapiens, HT-29, 168 h, read-out: ED50 (the source's name)
PC-3 = assay: Cytotoxicity against human PC3 cells after 7 days by MTT assay; type: functional; details: for EC50: Homo sapiens, PC-3, 168 h, read-out: ED50 (the source's name)
MIA PaCa-2 = assay: Cytotoxicity against human MIAPaCa2 cells after 7 days by MTT assay; type: functional; details: for EC50: Homo sapiens, MIA PaCa-2, 168 h, read-out: ED50 (the source's name)
MCF7 = assay: Cytotoxicity against human MCF7 cells after 7 days by MTT assay; type: functional; details: for EC50: Homo sapiens, MCF7, 168 h, read-out: ED50 (the source's name)
Artemia salina = assay: (§1) Toxicity in Artemia salina; type: organism-based; details: in vivo
[1] = as §1; type: organism-based; details: in vivo, read-out: ED50 (the source's name)

Compound | EC50 (A549) [µg/mL] | EC50 (A498) [µg/mL] | ED50 (HT-29) | EC50 (PC-3) [µg/mL] | EC50 (MIA PaCa-2) [µg/mL] | EC50 (MCF7) [µg/mL] | ED50 (Artemia salina) [×10⁻² ug/ml] | EC50 (HT-29) [µg/mL] | ED50 (A549) [µg/mL] | ED50 (A498) [µg/mL] | ED50 (PC-3) [µg/mL] | ED50 (MIA PaCa-2) [µg/mL] | ED50 (MCF7) [µg/mL] | LC50 [1] [µg/mL]
CCCCCCCCCC[C@H](O)[C@H]1CC[C@H]([C@H]2CC[C@H]([C@H](O)CCCC[C@H](O)CCCCC[C@@H](O)CC3=C[C@H](C)OC3=O)O2)O1 [ANNOGLAUCIN] | 1.08 (≈ 1.69 µM) | 1.01 (≈ 1.58 µM) | 1 ×10⁻⁷ ug/ml | 0.356 (≈ 0.557 µM) | 1.45 (≈ 2.27 µM) | 1.56 (≈ 2.44 µM) | 2.2 |  |  |  |  |  |  | 
CCCCC[C@H](O)[C@H](O)CCC[C@H](O)[C@H]1CC[C@H]([C@H]2CC[C@H]([C@H](O)CCCCCCCCCCCCC3=C[C@H](C)OC3=O)O2)O1 [PURPUREDIOLIN] | 0.443 (≈ 0.693 µM) | 1.36 (≈ 2.13 µM) | 1 ×10⁻⁷ ug/ml | 0.353 (≈ 0.552 µM) | 1.44 (≈ 2.25 µM) | 0.916 (≈ 1.43 µM) | 7 |  |  |  |  |  |  | 
COc1cccc2c1C(=O)c1c(O)c3c(c(O)c1C2=O)C[C@@](O)(C(=O)CO)C[C@@H]3O[C@H]1C[C@H](N)[C@H](O)[C@H](C)O1 [DOXORUBICIN] | 0.00367 (≈ 0.00675 µM) | 0.00198 (≈ 0.00364 µM) |  | 0.0227 (≈ 0.0418 µM) | 0.00145 (≈ 0.00267 µM) | 0.212 (≈ 0.39 µM) |  | 0.00966 (≈ 0.0178 µM) |  |  |  |  |  | 
CCCCCCCCCCCC[C@@H](O)[C@H]1CC[C@H]([C@H](O)CCCC[C@H](O)CCCCC[C@@H](O)CC2=CC(C)OC2=O)O1 (some centres undefined) [ANNONACIN] |  |  | 1.18 µg/mL (≈ 1.98 µM) |  |  |  |  |  | 1.32 (≈ 2.21 µM) | 1.16 (≈ 1.94 µM) | 1.33 (≈ 2.23 µM) | 1.9 (≈ 3.18 µM) | 1.96 (≈ 3.28 µM) | 0.46 (≈ 0.771 µM)
CCCCC[C@H](O)CCCC[C@H](O)[C@H]1CC[C@H]([C@H]2CC[C@H]([C@H](O)CCCC[C@H](O)CCCCCCCC3=C[C@H](C)OC3=O)O2)O1 [PURPURENIN] | 1.29 (≈ 2.02 µM) | 1.25 (≈ 1.96 µM) |  | 1.07 (≈ 1.67 µM) | 1.98 (≈ 3.1 µM) | 1.67 (≈ 2.61 µM) | 2.9 | 0.316 (≈ 0.495 µM) |  |  |  |  |  | 
